The record followed here is PubChem BioAssay (NCI).

“And” between values parts separate entries of the source, which are not always exact repeats. Equal entries are not always repeated.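 96-well plates; 48 h exposure; 5 concentrations. Endpoints by linear interpolation between flanking doses. Not reached: highest tested concentration assigned. GI50: concentration for 50% inhibition of growth. The concentration for full growth arrest is given as TGI.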 A value given as a limit tells only on which side of the number the result lay.

The experiment deals with MDA-MB-468 breast. Kind of experiment: NCI anticancer screen, dose series, 48 h.
For `CS(=O)(=O)Nc1cc(-c2ccc3ncnc(Nc4ccc5c(cnn5Cc5ccc(F)cc5)c4)c3c2)cnc1Cl`, the GI50 was 281 nM and the TGI turned out to be 1520 nM.
In the case of `Cc1cc(N2CCCC2)nc(N(CCCNc2ccnc3cc(Cl)ccc23)Cc2ccc3c(c2)OCO3)n1`, the GI50 was 1180 nM and the TGI is 3550 nM.
On to `O=c1oc2ccc(Cl)cc2c(=O)n1-c1ccc(I)cc1F`, for which the GI50 is 269 nM and the TGI came to 870 nM.
For the molecule `Oc1cc(Cl)ccc1Oc1ccc(Cl)cc1Cl`, the GI50 is 2420 nM and the TGI came to 7240 nM.
As for `COC(=O)[C@@H]1CCCN1C(=O)[C@@H]1CCCN1C(=O)[C@@H](Cc1c[nH]c2ccccc12)NC(=S)Nc1cc(C(F)(F)F)cc(C(F)(F)F)c1`, the GI50 was 2050 nM and the TGI stood at 7020 nM.
Take `O=C(NN1C(=O)CSC1c1ccc(Cl)cc1)c1[nH]c2ccc(F)cc2c1-c1ccccc1` (stereo unspecified): the GI50 was 8040 nM and the TGI came to 25100 nM.
As to `C=C[C@]1(C)C=C2C(=O)[C@@]3(O)OC[C@@]4(CCCC(C)(C)C43O)C2(O)C(O)C1` (stereo partly specified), the GI50 is 1290 nM and the TGI is 3160 nM.
The corresponding values for `COc1cnc2c(c1)C(=O)c1c-2n(CCCN2CCCC2)c(=O)c2cc(Cl)ccc12` are 63.5 nM and 2040 nM.
`CCCCC[C@H]1C/C=C2/C(=O)C(Cl)=C[C@@H]2C/C=C\CCCC(=O)O[C@@H](CCCCC)C/C=C2/C(=O)C(Cl)=C[C@@H]2C/C=C\CCCC(=O)O1`: the GI50 is 366 nM and the TGI amounted to 862 nM.
Consider `CC1=C[C@H]2O[C@@H]3C[C@H]4OC(=O)/C=C\C=C\[C@H]([C@@H](C)O)OCC[C@@H](C)[C@H](O)C(=O)OC[C@@]2(CC1)[C@]4(C)[C@]31CO1`, for which the GI50 is 3.71 nM and 1.43 nM; the TGI came to 2.28 nM.
Consider `CCN1C(=O)N(CC)C2C1NN=c1s/c(=C3\C(=O)N(C)c4ccccc43)c(=O)n12` (stereo unspecified), for which the GI50 was 354 nM and the TGI came out at 6010 nM.
The corresponding values for `Cn1cc(-c2cc(N)n3nc(-c4cn(C)c5ccc(F)cc45)cc3n2)c2cc(F)ccc21` are 1590 nM and 3450 nM.
The corresponding values for `Nc1nc(Nc2cccc(F)c2)nc2ccccc12` are 13600 nM and 30800 nM.
Take `CC(C)OC(=O)c1ccc2[nH]c(O)c(C(=Nc3ccc(N(C)C(=O)CN4CCN(C)CC4)cc3)c3ccccc3)c2c1`: the GI50 is 964 nM and the TGI came to 2460 nM.
On to `COc1ccc2c(c1)nc(N)c1c3cccnc3cn21`, for which the GI50 is 294 nM and the TGI was 3450 nM.
As for `Clc1ccc2nc(Oc3ccccc3)cnc2c1`, the GI50 is above 100000 nM and the TGI was above 100000 nM.
For the molecule `CCOC(=O)N1CCN(S(=O)(=O)c2oc(-c3ccc(Cl)cc3)nc2C#N)CC1`, the GI50 was 1890 nM and the TGI was determined as 4090 nM.
`Cn1cc(-c2ccc3c(c2)CCN3C(=O)Cc2cccc(C(F)(F)F)c2)c2c(N)ncnc21`: the GI50 was 3710 nM and the TGI worked out at 29200 nM.
As for `COc1cc(/C=C(/c2ccccc2)[N+](=O)[O-])c(OC)c2c1OCO2`, the GI50 is 1330 nM and the TGI was 2730 nM.
As to `Cn1cc(-c2ccc(CNc3cc(-c4cnc5cc(OCCCN6CCCC6)ccn45)ncn3)cc2)cn1`, the GI50 was 1660 nM and the TGI was 3210 nM.
As for `C=C(C)CCC(C)N1CCC(N2CCC(C(=O)NCCc3ccccc3)CC2)CC1` (stereo unspecified), the GI50 was 2200 nM and the TGI worked out at 15800 nM.
On the same counts, the results for `COC1CCN(Cc2ccc3c(NNC(=O)c4cnccn4)nc4cc(F)ccc4n23)C1` (stereo unspecified) are 916 nM and 4270 nM.
`CCc1c[nH]c2ncnc(N3CC[C@@](N)(CNC(=O)c4ccc(F)cc4F)C3)c12`: the GI50 is 15000 nM and the TGI was 63700 nM.
For `C[C@H](CS(C)(=O)=O)Nc1ncc2cc(Oc3ccc(F)cc3F)c(=O)n(C)c2n1`, the GI50 is above 25000 nM and the TGI is above 25000 nM.
For the molecule `NCc1ccc(-n2c(-c3nonc3N)nc3cnccc32)cc1`, the GI50 was 2750 nM and the TGI came to 11800 nM.
Take `Fc1ccc(Nc2nccc(-c3c(-c4ccc(C(F)(F)F)cc4)nn4ncccc34)n2)cc1F`: the GI50 was above 20000 nM and the TGI is above 25000 nM.
`Fc1ccc(Nc2nc(NCCNc3ccnc4cc(Cl)ccc34)nc(N3CCOCC3)n2)cc1`: the GI50 is 1960 nM and the TGI stood at 4830 nM.
On the same counts, the results for `COc1ccccc1-c1c(C)nn2c(NCc3ccccn3)cc(C)nc12` are 1660 nM and above 40400 nM.
On the same counts, the results for `O=C(/C=C/c1ccccc1Cl)Nc1ncc(Cc2cc(Cl)ccc2Cl)s1` are 934 nM and 11100 nM.
Consider `CCCCCc1c(C)[nH]c(/C=C2\N=C(c3ccc[nH]3)C=C2Oc2ccc(Cl)cc2)c1C`, for which the GI50 was 24.3 nM and the TGI was 2180 nM.
In the case of `COc1ccc(/C=C2\CCCC3=C2NC(C)=NC3c2ccc(OC)c(OC)c2)cc1OC` (stereo unspecified), the GI50 is 1290 nM and the TGI amounted to 8180 nM.
For the molecule `CC1=CC(=O)C(C(C)=Nc2ccccc2Cl)C(=O)O1` (stereo unspecified), the GI50 was above 100000 nM and the TGI is above 100000 nM.
For `Cc1ccc2c(c1)ncn2-c1ncnc2c1CC(C)c1ccccc1N2C` (stereo unspecified), the GI50 is 49.2 nM and the TGI turned out to be 19200 nM.
